From article PMC3251870 (British Journal of Cancer, 2011) come the findings set out here.

Like-named read-outs stand apart in the source and are kept apart here.

Test [1] relates to Melanocytes. The test is described as follows: MTS cell viability, primary melanocytes. Type of test: cell-based, human. To be noted: 4 days. The protocol:
(§1) All human cancer cell lines were maintained in RPMI media supplemented with 5% (lung and breast cancer cells) or 10% (melanoma cells) fetal bovine serum. […] Human mammary epithelial cells immortalised with telomerase were maintained in complete MEGM media from Cambrex (East Rutherford, NJ, USA).
(§2) Absorbance at 490 and 650 nm (reference wavelength) was measured by a Spectra Max (Molecular Devices, Sunnyvale, CA, USA) or a FlouroStar Omega (BMG Biosciences, Ortenberg, Germany) plate reader. Data were normalised to the untreated controls (100% viability). Each cell line was tested in 1–5 independent assays, each containing 4–8 replicates. IC50 values were calculated using DIVISA, a high-throughput software, developed in-house (manuscript in preparation), for storing and analysing drug sensitivity assays. Dose–response curves were plotted using a non-linear regression model and IC50s were determined from the fitted curves.

The subject of test [2] is HCC366 cells. The test is described as follows: MTS cell viability, HCC366. The test is classed as cell-based, human. To be noted: HCC366 NSCLC, 4 days. How it is done:
as §1, §2

Test [3] deals with HBEC30KT human bronchial epithelial cells. The test is described as follows: MTS cell viability, HBEC30KT. Type of test: cell-based. As to conditions: HBEC30KT (normal, matched to HCC4017), 4 days. How it is done:
as §1, §2

For test [4], the system named is HCC1954 cells. The test is described as follows: MTS cell viability, HCC1954. To be noted: HCC1954 breast cancer line, 4 days. Type of test: cell-based, human. The protocol:
as §1, §2

The target of test [5] is purified recombinant HDAC1 (Homo sapiens, UniProt Q13547). As to conditions: 50 nM.
Source text: (§4) Cell extracts or purified recombinant HDAC enzymes were used in standard HDAC activity assays using Millipore's HDAC Fluorometric Assay Kit (Millipore, Billerica, MA, USA), according to the manufacturer's protocol. A FluoroStar Omega plate reader (BMG Biosciences) was used for fluorescent detection. Purified recombinant active HDACs 1, 5 and 8 were purchased from Millipore/Upstate.
For test [6], the system named is 1585T immortalised normal human mammary epithelial cells. The test is described as follows: MTS cell viability, 1585T. The test is classed as cell-based. As to conditions: 4 days. The protocol: as §1, §2
Test [7] addresses purified recombinant HDAC8 (Homo sapiens, UniProt Q9BY41).
Source text: as §4
The test system of test [8] is H2073 cells. The test is described as follows: MTS cell viability, H2073. The test is classed as cell-based, human. To be noted: H2073 NSCLC, MTS, 4 days. The protocol:
as §1, §2

Test [9] deals with LOXIMVI melanoma cells. The test is described as follows: MTS cell viability, LOXIMVI. To be noted: LOXIMVI melanoma, 4 days. The test is classed as cell-based, human. How it is done:
as §1, §2

Test [10] relates to H1437 cells. The test is described as follows: ATP-based cell viability, H1437 vs H1299. As to conditions: cell viability by ATP measurements. Also on record: species or system human. The text has this:
Supplementary Material Chang et al
This supplementary material contains:
-Supplementary Figure Legends
-Supplementary Figures 1- 4
Please see separate excel file for Supplementary Table 1.
Supplementary Figure Legends
Supplementary Figure 1: Expanded panel of cell lines showing distinct relative sensitivities to
TSA vs. depsipeptide. Lung cancer cell lines not depicted in the main Figure 1A are shown in A)
and an expanded set of breast cancer cells and HMES and melanomacells and melanocytes in
Supplementary Figure 2: Differential response to HDAC inhibitors is a general phenomenon. A)
H1299 also by ATP measurements.
Supplementary Figure 3: HDAC ex pression levels may contribute to drug sensitivity. A)
B) HDAC 2 levels are similar in the cell line
Supplementary Figure 4: Validation of microarray gene expression differences in the
H1993/H2073 cell line pair confirmed overexpression of glutathione metabolism genes in H2073
(shown in A) and downregulation of chromatin interacting proteins (B).

The subject of test [11] is OCM3 uveal melanoma cells. The test is described as follows: MTS cell viability, OCM3. The test is classed as cell-based, human. As to conditions: 4 days. The protocol:
as §1, §2

Test [12] relates to MALME3M melanoma cells. The test is described as follows: MTS cell viability, MALME3M. Type of test: cell-based, human. To be noted: 4 days. The protocol: as §1, §2
Test [13] has as its system HCC4017 lung cancer cells. The test is described as follows: MTS cell viability, HCC4017. The test is classed as cell-based, human. As to conditions: HCC4017 (lung cancer, matched to HBEC30KT), MTS, 4 days. How it is done: as §1, §2
The test system of test [14] is histone 3 acetylation in H358 cells. The test is described as follows: Western blot, acetylated histone 3. Type of test: cell-based, human. To be noted: 24 h. How it is done:
(§3) Exponentially growing cells were treated with the appropriate compounds and harvested 4 or 24 h later in a standard nuclear lysis buffer and whole cell lysates were quantified. Equal amounts of total protein were loaded onto 4–12% Bis-Tris SDS gels and subjected to electrophoresis. After transferring onto nitrocellulose membranes, blots were probed for acetylated tubulin (Sigma, St Louis, MO, USA; T6793), acetylated histone 3 (Millipore/Upstate #06-599), acetylated histone 4 (Millipore/Upstate #07-329) or trimethylated histone 3 at lysine 9 (Millipore/Upstate #07-523). Actin (Santa Cruz, Santa Cruz, CA, USA; #1616) and HDAC1 (Affinity Bioreagents, Rockford, IL, USA; #PA1-860) were probed as loading controls. Quantification of bands in films was performed using two independent methods, which yielded similar results, Image J (NIH public software) and Quantity one (Bio-Rad, Hercules, CA, USA). The average of the two methods±s.e.m. is shown as specified in figure legends. For the MDR western analysis, a primary antibody against P-glycoprotein from Calbiochem (Darmstadt, Germany) was used according to the manufacturer's recommendations and HSP90 (Santa Cruz) was used as a loading control.
(In western blotting, separated proteins are transferred to a membrane and probed.)

Test [15] concerns total HDAC activity, C127 cells. The test is described as follows: Total HDAC activity in lysates from drug-treated cells. Type of test: cell-based. As to conditions: 25 nM. The text has this: HDAC2 was purified as described below.
Test [16] relates to M14 melanoma cells. The test is described as follows: MTS cell viability, M14. The test is classed as cell-based, human. To be noted: 4 days. The protocol: as §1, §2
The subject of test [17] is H1299 cells. The test is described as follows: MTS cell viability, H1299. Type of test: cell-based, human. To be noted: H1299 NSCLC, 4 days. How it is done:
as §1, §2

The target in test [18] is T1, recombinant murine HDAC2 (Mus musculus, UniProt P70288).
T1 construct: The murine HDAC2 open reading frame was amplified by PCR from the plasmid pME18S-HDAC2; FLAG (DYKDDDDK) (C); made in house; host or cells: Sf9 insect cells (baculovirus)
The test is described as follows: HDAC fluorometric activity assay, purified HDAC2. The test is classed as biochemical. As to conditions: 400 nM.
Source text: Cell extracts or purified recombinant HDAC enzymes were used in standard HDAC activity assays using Millipore's HDAC Fluorometric Assay Kit (Millipore, Billerica, MA, USA), according to the manufacturer's protocol. A FluoroStar Omega plate reader (BMG Biosciences) was used for fluorescent detection. […] HDAC2 was purified as described below.

For test [19], the system named is acetylated tubulin in H358 cells. The test is described as follows: Western blot, acetylated tubulin. Type of test: cell-based, human. To be noted: 200 nM, 24 h. How it is done: as §3

Chain of purified recombinant HDAC8 (Q9BY41 whole entry, species assumed): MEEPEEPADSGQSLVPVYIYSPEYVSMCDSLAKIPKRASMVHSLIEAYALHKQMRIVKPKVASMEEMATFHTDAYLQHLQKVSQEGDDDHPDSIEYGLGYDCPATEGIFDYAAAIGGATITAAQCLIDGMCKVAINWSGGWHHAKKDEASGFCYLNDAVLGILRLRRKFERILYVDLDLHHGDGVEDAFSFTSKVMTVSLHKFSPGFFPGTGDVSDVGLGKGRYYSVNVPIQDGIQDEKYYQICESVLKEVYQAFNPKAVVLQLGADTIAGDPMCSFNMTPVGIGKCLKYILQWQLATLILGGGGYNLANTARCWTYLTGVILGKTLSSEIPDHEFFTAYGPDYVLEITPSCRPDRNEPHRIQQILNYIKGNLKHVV
T1 sequence (P70288 whole entry): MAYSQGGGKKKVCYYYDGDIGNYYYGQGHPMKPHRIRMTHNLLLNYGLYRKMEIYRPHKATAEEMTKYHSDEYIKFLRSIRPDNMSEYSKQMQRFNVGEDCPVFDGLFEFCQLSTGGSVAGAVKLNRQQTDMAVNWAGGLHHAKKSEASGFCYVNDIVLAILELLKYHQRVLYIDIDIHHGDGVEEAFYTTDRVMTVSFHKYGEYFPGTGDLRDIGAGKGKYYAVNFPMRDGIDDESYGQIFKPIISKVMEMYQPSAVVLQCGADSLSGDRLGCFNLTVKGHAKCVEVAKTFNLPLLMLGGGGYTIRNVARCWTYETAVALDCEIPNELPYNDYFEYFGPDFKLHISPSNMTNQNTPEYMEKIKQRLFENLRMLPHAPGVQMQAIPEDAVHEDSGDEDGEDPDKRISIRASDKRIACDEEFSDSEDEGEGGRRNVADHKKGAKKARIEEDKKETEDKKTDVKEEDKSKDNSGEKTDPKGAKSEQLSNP
Chain of purified recombinant HDAC1 (Q13547 whole entry, species assumed): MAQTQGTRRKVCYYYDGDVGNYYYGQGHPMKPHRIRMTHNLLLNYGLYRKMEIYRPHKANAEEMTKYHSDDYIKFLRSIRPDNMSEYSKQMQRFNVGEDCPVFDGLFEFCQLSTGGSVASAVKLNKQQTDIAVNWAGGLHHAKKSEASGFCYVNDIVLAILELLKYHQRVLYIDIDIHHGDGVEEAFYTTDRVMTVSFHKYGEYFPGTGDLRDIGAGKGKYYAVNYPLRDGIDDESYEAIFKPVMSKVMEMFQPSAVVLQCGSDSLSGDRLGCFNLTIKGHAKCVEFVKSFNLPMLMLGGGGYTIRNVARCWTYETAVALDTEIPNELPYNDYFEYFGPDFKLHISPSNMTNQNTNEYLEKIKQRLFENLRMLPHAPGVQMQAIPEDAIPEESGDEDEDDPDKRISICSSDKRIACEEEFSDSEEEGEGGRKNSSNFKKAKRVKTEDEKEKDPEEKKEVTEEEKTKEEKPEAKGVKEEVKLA

For the compound `C/C=C1\NC(=O)[C@H]2CSSCC/C=C/[C@H](CC(=O)N[C@H](C(C)C)C(=O)N2)OC(=O)[C@H](C(C)C)NC1=O` [Depsipeptide, depsipeptide], the concentration for half-maximal inhibition (IC50) was found to be 0.9 nM in test [1]; 3.1 nM in [2]; 0.9 nM in test [3]; 1.5 nM in test [4]; 1.3 nM in test [6]; 37.1 nM in test [8]. The concentration for half-maximal inhibition (IC50) in [9] was 1.2 nM; in test [11], 1.5 nM; in test [12] it was 0.7 nM; in test [13], 6.5 nM; in test [16] it was 2.4 nM; in test [17] it was 12.1 nM. Besides, the “inhibition of HDAC1 activity” value in [5] was “no inhibition”. Also, the “inhibition of HDAC8 activity” value in test [7] (50 nM) and in test [7] (0.5 μM) was “no effect” each time. In addition, the “sensitivity of H1437 compared to H1299” value in test [10] is given as “greater sensitivity”. The “global level of histone 3 acetylation” value in test [14] (25 nM) is given as “globally increased”. In test [15], the “total HDAC activity in lysates made from treated cells vs DMSO-treated cells” value is reported as “strong inhibition”.
Regarding `CC(/C=C/C(=O)NO)=C\[C@@H](C)C(=O)c1ccc(N(C)C)cc1` [TSA, trichostatin A], the concentration for half-maximal inhibition (IC50) in test [1] came out at 284 nM; in test [2], 147 nM; in [3], 285 nM; in [4] it was 91 nM; in test [6] it was 124 nM; in test [8] it was 63.7 nM. The 50% inhibitory concentration (IC50) worked out at 57 nM in test [9]; 220 nM in [11]; 240 nM in test [12]; 73 nM in [13]; 98 nM in test [16]; 150 nM in [17]. Further, in test [18], the “inhibition of HDAC2 activity” value is given as “fully inhibited”. Also, the acetylated tubulin levels entry in test [19] is recorded as “increase”. In [14] (200 nM), the “global level of histone 3 acetylation” value is reported as “globally increased”.

By IC50 is commonly meant the concentration needed to halve the response being measured.
